Tests used:
[1] = target: T1, recombinant guanylate cyclase reporter cell line (Rattus norvegicus, UniProt P19686+P20595); test: Effect on a recombinant guanylate cyclase reporter cell line (B-2); format: cell-based; details: in some cases mean values for individual determinations
T1 construct: expressed in transfected cells
T1 sequence (P19686 1-690): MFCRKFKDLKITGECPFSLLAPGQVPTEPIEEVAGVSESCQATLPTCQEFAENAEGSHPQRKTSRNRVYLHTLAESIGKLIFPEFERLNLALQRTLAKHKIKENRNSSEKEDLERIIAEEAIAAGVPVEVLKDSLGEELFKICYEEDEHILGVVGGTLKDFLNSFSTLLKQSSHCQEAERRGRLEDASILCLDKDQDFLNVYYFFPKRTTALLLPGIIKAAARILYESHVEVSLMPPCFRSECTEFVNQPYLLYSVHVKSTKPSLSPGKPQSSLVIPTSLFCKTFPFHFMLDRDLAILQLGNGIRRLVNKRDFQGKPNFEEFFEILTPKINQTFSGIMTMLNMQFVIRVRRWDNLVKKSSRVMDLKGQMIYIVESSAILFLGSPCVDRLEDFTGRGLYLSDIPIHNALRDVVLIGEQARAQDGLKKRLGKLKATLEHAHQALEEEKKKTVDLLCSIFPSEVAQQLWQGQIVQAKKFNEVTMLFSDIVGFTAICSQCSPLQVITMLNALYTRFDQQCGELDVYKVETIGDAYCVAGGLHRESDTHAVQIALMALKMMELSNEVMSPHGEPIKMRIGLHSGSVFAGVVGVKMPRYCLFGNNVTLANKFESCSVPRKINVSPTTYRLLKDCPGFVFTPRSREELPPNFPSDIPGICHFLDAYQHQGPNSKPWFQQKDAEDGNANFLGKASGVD
T1 sequence (P20595 1-619): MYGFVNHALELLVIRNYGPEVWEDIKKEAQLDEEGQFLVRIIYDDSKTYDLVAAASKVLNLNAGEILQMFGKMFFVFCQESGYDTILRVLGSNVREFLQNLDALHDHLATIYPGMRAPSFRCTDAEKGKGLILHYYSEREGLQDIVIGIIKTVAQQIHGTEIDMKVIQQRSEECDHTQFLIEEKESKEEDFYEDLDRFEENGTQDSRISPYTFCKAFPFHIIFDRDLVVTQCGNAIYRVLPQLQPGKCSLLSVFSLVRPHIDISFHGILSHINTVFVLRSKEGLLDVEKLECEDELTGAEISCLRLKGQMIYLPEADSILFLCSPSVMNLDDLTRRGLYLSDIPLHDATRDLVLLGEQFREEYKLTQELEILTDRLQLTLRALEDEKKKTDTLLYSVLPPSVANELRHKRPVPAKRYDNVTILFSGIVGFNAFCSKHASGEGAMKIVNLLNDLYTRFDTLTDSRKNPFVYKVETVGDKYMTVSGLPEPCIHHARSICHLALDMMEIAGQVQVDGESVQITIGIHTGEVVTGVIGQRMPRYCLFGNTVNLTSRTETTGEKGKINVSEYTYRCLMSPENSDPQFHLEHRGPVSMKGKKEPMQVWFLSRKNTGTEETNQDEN
Method: B-2. Effect on a Recombinant Guanylate Cyclase Reporter Cell Line
The cellular effect of the inventive compounds is determined using a recombinant guanylate cyclase reporter cell line, as described in F. Wunder et al., Anal. Biochem. 339, 104-112 (2005).
Representative MEC values (MEC=minimum effective concentration) for the inventive compounds are shown in the table below (in some cases as mean values for individual determinations): […]

[2] = Pharmacokinetic parameters following intravenous administration in rats (B-6); format: in vivo, male Wistar rats; details: for MRT / half-life: male, Wistar, rat, plasma; for MRT: mean residence time; for half-life: terminal half-life
Excerpt: • Klaus Witte, Kai Hu, Johanna Swiatek, Claudia Müssig, Georg Ertl and Bjorn Lemmer: Experimental heart failure in rats: effects on cardiovascular circadian rhythms and on myocardial β-adrenergic signaling. Cardiovasc Res 47 (2): […], 2000; Kozo Okamoto: Spontaneous hypertension in rats. Int Rev Exp Pathol 7: 227-270, 1969; Maarten van den Buuse: Circadian Rhythms of Blood Pressure, Heart Rate, and Locomotor Activity in Spontaneously Hypertensive Rats as Measured With Radio-Telemetry. Physiology & Behavior 55(4): 783-787, 1994 B-6. Determination of Pharmacokinetic Parameters Following Intravenous and Oral Administration
The pharmacokinetic parameters of the inventive compounds are determined in male CD-1 mice, male Wistar rats and female beagles. Intravenous administration in the case of mice and rats is effected by means of a species-specific plasma/DMSO formulation, and in the case of dogs by means of a water/PEG400/ethanol formulation. In all species, oral administration of the dissolved substance is performed via gavage, based on a water/PEG400/ethanol formulation. The removal of blood from rats is simplified by inserting a silicone catheter into the right Vena jugularis externa prior to substance administration. The operation is effected at least one day prior to the experiment with isofluran anaesthesia and administration of an analgesic (atropine/rimadyl (3/1) 0.1 ml s.c.). The blood is taken (generally more than 10 time points) within a time window including terminal time points of at least 24 to a maximum of 72 hours after substance administration. The blood is removed into heparinized tubes. The blood plasma is then obtained by centrifugation; if required, it can be stored at −20° C. until further processing.
An internal standard (which may also be a chemically unrelated substance) is added to the samples of the inventive compounds, calibration samples and qualifiers, and there follows protein precipitation by means of acetonitrile in excess. Addition of a buffer solution matched to the LC conditions, and subsequent vortexing, is followed by centrifugation at 1000 g. The supernatant is analysed by means of LC-MS/MS using C18 reversed-phase columns and variable mobile phase mixtures. The substances are quantified via the peak heights or areas from extracted ion chromatograms of specific selected ion monitoring experiments.
The plasma concentration/time plots determined are used to calculate the pharmacokinetic parameters such as AUC, Cmax, t1/2 (terminal half-life), F (bioavailability), MRT (mean residence time) and CL (clearance), by means of a validated pharmacokinetic calculation program.
Since the substance quantification is performed in plasma, it is necessary to determine the blood/plasma distribution of the substance in order to be able to adjust the pharmacokinetic parameters correspondingly. For this purpose, a defined amount of substance is incubated in heparinized whole blood of the species in question in a rocking roller mixer for 20 min. After centrifugation at 1000 g, the plasma concentration is measured (by means of LC-MS/MS; see above) and determined by calculating the ratio of the Cblood/Cplasma value.

MEC (minimum effective concentration) [1]	AUCnormal [2]	CLblood [2]	MRT [2]	half-life [2]	SMILES
0.1 µM	0.49 kg·h/L	42.7 mL/min/kg	7.4 h	5.9 h	Cc1cc(OCc2c(F)cccc2F)n2nc(C)c(C(=O)NCC(C)(N)CCC(F)(F)F)c2c1 (single isomer, unassigned) [Example 43, ent-N-(2-Amino-5,5,5-trifluoro-2-methylpentyl)-7-[(2,6-difluorobenzyl)oxy]-2,5-dimethylpyrazolo[1,5-a]pyridine-3-carboxamide]
0.1 µM	0.37 kg·h/L	46 mL/min/kg	3.5 h	2.6 h	CCCC(C)(N)CNC(=O)c1c(C2CC2)nn2c(OCc3c(F)cccc3F)cc(C)cc12 (single isomer, unassigned) [Example 55, ent-N-(2-Amino-2-methylpentyl)-2-cyclopropyl-7-[(2,6-difluorobenzyl)oxy]-5-methylpyrazolo[1,5-a]pyridine-3-carboxamide]
0.1 µM	0.45 kg·h/L	36.5 mL/min/kg	4.3 h	3.2 h	Cc1cc(OCc2c(F)ccc(F)c2F)n2nc(C)c(C(=O)NCC(C)(N)CCC(F)(F)F)c2c1 (single isomer, unassigned; enantiomer b) [Example 168, ent-N-(2-Amino-5,5,5-trifluoro-2-methylpentyl)-2,5-dimethyl-7-[(2,3,6-trifluorobenzyl)oxy]pyrazolo[1,5-a]pyridine-3-carboxamide (Enantiomer B)]
0.2 µM	0.44 kg·h/L	36.8 mL/min/kg	4.9 h	4 h	CCCC(C)(N)CNC(=O)c1c(C2CC2)nn2c(OCc3c(F)ccc(F)c3F)cc(C)cc12 (single isomer, unassigned; enantiomer b) [Example 169, ent-N-(2-Amino-2-methylpentyl)-2-cyclopropyl-5-methyl-7-[(2,3,6-trifluorobenzyl)oxy]pyrazolo[1,5-a]pyridine-3-carboxamide (Enantiomer B)]
0.1 µM	0.32 kg·h/L	48.7 mL/min/kg	3.4 h	2.6 h	Cc1cc(OCc2c(F)ccc(F)c2F)n2nc(C3CC3)c(C(=O)NCC(C)(N)CCC(F)(F)F)c2c1 (single isomer, unassigned; enantiomer b) [Example 170, ent-N-(2-Amino-5,5,5-trifluoro-2-methylpentyl)-2-cyclopropyl-5-methyl-7-[(2,3,6-trifluorobenzyl)oxy]pyrazolo[1,5-a]pyridine-3-carboxamide (Enantiomer B)]

Reference: US9422285B2, “Substituted pyrazolo[1,5-A]-pyridine-3-carboxamides and use thereof” (Bayer Pharma Aktiengesellschaft, priority 2014, dated 2016)
